Experimental findings from patent US9732119B2, “Immunomodulators” (BRISTOL-MYERS SQUIBB COMPANY, priority 2014, dated 2017) are described below.

pIC50: −log10 of the molar value. Non-standard residues stand in square brackets, D forms with d. Residues, ends and D or L forms follow the SMILES beside them. Trp(1-CH2COOH) = N[C@@H](Cc1cn(CC(=O)O)c2ccccc12)C(=O)O; Hyp = O=C(O)[C@@H]1C[C@@H](O)CN1; NMeNle = CCCC[C@H](NC)C(=O)O; NMeA = CN[C@@H](C)C(=O)O; Dab = NCC[C@H](N)C(=O)O; Dap = NC[C@H](N)C(=O)O; AEA = NCCOCC(=O)O; Ava = NCCCCC(=O)O

The experiment addresses T1, PD-1-Ig binding to PD-L1-TVMV-His (PD-L1-His) (Homo sapiens, UniProt Q9NZQ7).
T1 construct: hPDL1(19-239)-TVMV-His; made in house; host or cells: HEK293T cells
Briefly: PD-1/PD-L1 Homogenous Time-Resolved Fluorescence (HTRF) binding assay. The settings on record: PD-1-Ig (20 nM) / PD-L1-His (10 nM). In a few lines: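 HTRF competition: compound pre-incubated 15 min with PD-L1-His (10 nM final), then PD-1-Ig (20 nM final) added for 15 min in dPBS, 0.1% BSA, 0.05% Tween-20. Detection with Eu-cryptate anti-Ig (1 nM) and APC anti-His (20 nM) antibodies.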

T1 sequence (Q9NZQ7 with tags, fused parts or gaps): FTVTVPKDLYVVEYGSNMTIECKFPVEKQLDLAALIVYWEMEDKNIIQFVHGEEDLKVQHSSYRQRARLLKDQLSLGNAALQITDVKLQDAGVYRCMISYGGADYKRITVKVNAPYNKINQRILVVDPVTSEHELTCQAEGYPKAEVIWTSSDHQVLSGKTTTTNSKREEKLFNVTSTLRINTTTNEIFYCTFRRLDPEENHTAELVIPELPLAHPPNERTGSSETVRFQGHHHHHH

For `CCCC[C@H]1C(=O)N(C)[C@@H](CCCC)C(=O)N[C@@H](CC(C)C)C(=O)N[C@H](C(=O)NCC(N)=O)CCCNCC(=O)N[C@@H](Cc2ccc(O)cc2)C(=O)N(C)[C@@H](C)C(=O)N[C@@H](CC(N)=O)C(=O)N2CCC[C@H]2C(=O)N[C@@H](Cc2cnc[nH]2)C(=O)N[C@@H](CCC(N)=O)C(=O)N2C[C@H](O)C[C@H]2C(=O)N[C@@H](Cc2c[nH]c3ccccc23)C(=O)NCC(=O)N[C@@H](Cc2cn(CC(=O)O)c3ccccc23)C(=O)N1C` [Example 10022], where the note is “range classes”, the pIC50 (usually −log10 of the IC50, conventionally taken in molar units) is 7.00 to 8.00. As to `CCCC[C@H]1C(=O)N(C)[C@@H](CCCC)C(=O)N[C@@H](CCC(=O)O)C(=O)N[C@H](C(=O)NCC(N)=O)CCNCC(=O)N[C@@H](Cc2ccc(O)cc2)C(=O)N(C)[C@@H](C)C(=O)N[C@@H](CC(=O)O)C(=O)N2CCC[C@H]2C(=O)N[C@@H](Cc2cnc[nH]2)C(=O)N[C@@H](CCC(N)=O)C(=O)N2C[C@H](O)C[C@H]2C(=O)N[C@@H](Cc2c[nH]c3ccccc23)C(=O)N[C@@H](CO)C(=O)N[C@@H](Cc2c[nH]c3ccccc23)C(=O)N1C` [Example 10023], under “range classes”, the pIC50 was 5.00 to 7.00. In turn, `CCCC[C@H]1C(=O)N(C)[C@@H](CCCC)C(=O)N[C@@H](CO)C(=O)N[C@H](C(=O)NCC(N)=O)CNCC(=O)N[C@@H](Cc2ccc(O)cc2)C(=O)N(C)[C@@H](C)C(=O)N[C@@H](CC(N)=O)C(=O)N2CCC[C@H]2C(=O)N[C@@H](Cc2cnc[nH]2)C(=O)N[C@@H](CCC(N)=O)C(=O)N2C[C@H](O)C[C@H]2C(=O)N[C@@H](Cc2c[nH]c3ccccc23)C(=O)N[C@@H](CO)C(=O)N[C@@H](Cc2c[nH]c3ccccc23)C(=O)N1C` [Example 10024] showed a pIC50 (range classes) of 7.00 to 8.00. On the same count and under the same terms, next, `CCCC[C@H]1C(=O)N(C)[C@@H](CCCC)C(=O)N[C@@H](CO)C(=O)N[C@H](C(=O)NCC(N)=O)CCCNCC(=O)N[C@@H](Cc2ccc(O)cc2)C(=O)N(C)[C@@H](C)C(=O)N[C@@H](CC(N)=O)C(=O)N2CCC[C@H]2C(=O)N[C@@H](Cc2cnc[nH]2)C(=O)N[C@@H](CCC(N)=O)C(=O)N2C[C@H](O)C[C@H]2C(=O)N[C@@H](Cc2c[nH]c3ccccc23)C(=O)N[C@@H](CO)C(=O)N[C@@H](Cc2c[nH]c3ccccc23)C(=O)N1C` [Example 10025]: 5.00 to 7.00; `CCCC[C@H]1C(=O)N(C)[C@@H](CCCC)C(=O)N[C@@H](CC(C)C)C(=O)N[C@H](C(=O)NCC(N)=O)CNCC(=O)N[C@@H](Cc2ccc(O)cc2)C(=O)N(C)[C@@H](C)C(=O)N[C@@H](CC(N)=O)C(=O)N2CCC[C@H]2C(=O)N[C@@H](Cc2cnc[nH]2)C(=O)N[C@@H](CC(C)C)C(=O)N2C[C@H](O)C[C@H]2C(=O)N[C@@H](Cc2c[nH]c3ccccc23)C(=O)NCC(=O)N[C@@H](Cc2c[nH]c3ccccc23)C(=O)N1C` [Example 10026]: 7.00 to 8.00. Regarding `CCCC[C@H]1C(=O)N(C)[C@@H](CCCC)C(=O)N[C@@H](CC(C)C)C(=O)N[C@H](C(=O)NCC(N)=O)CCNCC(=O)N[C@@H](Cc2ccc(O)cc2)C(=O)N(C)[C@@H](C)C(=O)N[C@@H](CC(N)=O)C(=O)N2CCC[C@H]2C(=O)N[C@@H](Cc2cnc[nH]2)C(=O)N[C@@H](CC(C)C)C(=O)N2C[C@H](O)C[C@H]2C(=O)N[C@@H](Cc2c[nH]c3ccccc23)C(=O)NCC(=O)N[C@@H](Cc2c[nH]c3ccccc23)C(=O)N1C` [Example 10027], where the note is “numeric values”, the pIC50 was 8.16. Compound `CCCC[C@H]1C(=O)N(C)[C@@H](CCCC)C(=O)N[C@@H](CC(C)C)C(=O)N[C@H](C(=O)NCC(N)=O)CCCNCC(=O)N[C@@H](Cc2ccc(O)cc2)C(=O)N(C)[C@@H](C)C(=O)N[C@@H](CC(N)=O)C(=O)N2CCC[C@H]2C(=O)N[C@@H](Cc2cnc[nH]2)C(=O)N[C@@H](CC(C)C)C(=O)N2C[C@H](O)C[C@H]2C(=O)N[C@@H](Cc2c[nH]c3ccccc23)C(=O)NCC(=O)N[C@@H](Cc2c[nH]c3ccccc23)C(=O)N1C` [Example 10028] had a pIC50 (range classes) of 5.00 to 7.00.

`CCCC[C@H]1C(=O)N(C)[C@@H](CCCC)C(=O)N[C@@H](CC(C)C)C(=O)NCCOCC(=O)N[C@@H](Cc2ccccc2)C(=O)N(C)[C@@H](C)C(=O)N[C@@H](CC(C)C)C(=O)N2CCC[C@H]2C(=O)NCC(=O)N[C@@H](CC(C)C)C(=O)N2CCC[C@H]2C(=O)N[C@@H](Cc2ccccc2)C(=O)NCC(=O)N[C@@H](Cc2ccccc2)C(=O)N1C` [Example 10500] (cyclo([AEA]F[NMeA]LPGLPFGF[NMeNle][NMeNle]L)) had a pIC50 (range classes) of 5.00 to 7.00. Same read-out and setting: next, `CCCC[C@H]1C(=O)N(C)[C@@H](CCCC)C(=O)N[C@@H](CC(C)C)C(=O)NCCOCC(=O)N[C@@H](Cc2ccc(O)cc2)C(=O)N(C)[C@@H](C)C(=O)N[C@@H](CC(N)=O)C(=O)N2CCC[C@H]2C(=O)N[C@@H](CN)C(=O)N[C@@H](CC(C)C)C(=O)N2C[C@H](O)C[C@H]2C(=O)N[C@@H](Cc2c[nH]c3ccccc23)C(=O)N[C@@H](CCN)C(=O)N[C@@H](Cc2c[nH]c3ccccc23)C(=O)N1C` [Example 10501] (cyclo([AEA]Y[NMeA]NP[Dap]L[Hyp]W[Dab]W[NMeNle][NMeNle]L)): 8.00 to 9.00; `CCCC[C@H]1C(=O)N(C)[C@@H](CCCC)C(=O)N[C@@H](CC(C)C)C(=O)NCCOCC(=O)N[C@@H](Cc2ccc(O)cc2)C(=O)N(C)[C@@H](C)C(=O)N[C@@H](CC(N)=O)C(=O)N2CCC[C@H]2C(=O)N[C@@H](CN)C(=O)N[C@@H](CC(C)C)C(=O)N2C[C@H](O)C[C@H]2C(=O)N[C@@H](Cc2c[nH]c3ccccc23)C(=O)N[C@@H](CCN)C(=O)N[C@@H](Cc2cn(CC(=O)O)c3ccccc23)C(=O)N1C` [Example 10502] (cyclo([AEA]Y[NMeA]NP[Dap]L[Hyp]W[Dab][Trp(1-CH2COOH)][NMeNle][NMeNle]L)): 8.00 to 9.00; `CCCC[C@H]1C(=O)N(C)[C@@H](CCCC)C(=O)N[C@@H](CC(C)C)C(=O)NCCOCC(=O)N[C@@H](Cc2ccc(O)cc2)C(=O)N(C)[C@@H](C)C(=O)N[C@@H](CC(N)=O)C(=O)N2CCC[C@H]2C(=O)N[C@@H](CN)C(=O)N[C@@H](CC(C)C)C(=O)N2C[C@H](O)C[C@H]2C(=O)N[C@@H](Cc2c[nH]c3ccccc23)C(=O)N[C@@H](CO)C(=O)N[C@@H](Cc2cn(CC(=O)O)c3ccccc23)C(=O)N1C` [Example 10503] (cyclo([AEA]Y[NMeA]NP[Dap]L[Hyp]WS[Trp(1-CH2COOH)][NMeNle][NMeNle]L)): 7.00 to 8.00.

For the setting “range classes”, `CCCC[C@H]1C(=O)N(C)[C@@H](CCCC)C(=O)N[C@@H](CC(C)C)C(=O)NCCCCC(=O)N[C@@H](Cc2ccc(O)cc2)C(=O)N(C)[C@@H](C)C(=O)N[C@@H](CC(N)=O)C(=O)N2CCC[C@H]2C(=O)N[C@@H](CN)C(=O)N[C@@H](CC(C)C)C(=O)N2C[C@H](O)C[C@H]2C(=O)N[C@@H](Cc2c[nH]c3ccccc23)C(=O)N[C@@H](CCN)C(=O)N[C@@H](Cc2c[nH]c3ccccc23)C(=O)N1C` [Example 10505] (cyclo([Ava]Y[NMeA]NP[Dap]L[Hyp]W[Dab]W[NMeNle][NMeNle]L)) gave a pIC50 of 8.00 to 9.00. For the compound `CCCC[C@H]1C(=O)N(C)[C@@H](CCCC)C(=O)N[C@@H](CC(C)C)C(=O)NCCCCC(=O)N[C@@H](Cc2ccc(O)cc2)C(=O)N(C)[C@@H](C)C(=O)N[C@@H](CC(N)=O)C(=O)N2CCC[C@H]2C(=O)N[C@@H](CN)C(=O)N[C@@H](CCC(=O)O)C(=O)N2C[C@H](O)C[C@H]2C(=O)N[C@@H](Cc2c[nH]c3ccccc23)C(=O)N[C@@H](CCN)C(=O)N[C@@H](Cc2cn(CC(=O)O)c3ccccc23)C(=O)N1C` [Example 10506] (cyclo([Ava]Y[NMeA]NP[Dap]E[Hyp]W[Dab][Trp(1-CH2COOH)][NMeNle][NMeNle]L)), the pIC50 (range classes) is 8.00 to 9.00.
